Experimental data published in EP1484329A1, “Indole derivatives with apoptosis inducing activity” (Zentaris GmbH, priority 2003, dated 2004).
Values after ≈ are worked out from the molar mass of the structure shown. Read-outs that look alike come from different tables or passages of the source.

Assays:
[1] = tested on: A431; experiment: XTT proliferation assay, A431; format: cell-based, human; conditions: Homo sapiens, read-out: XTT Proliferationsassay, EC50 A431
Source text: (§1) Die Substanzen 1,2, 4-6 wurden in einem Proliferationstest an etablierten Tumorzelllinien auf ihre anti-proliferative Aktivität hin untersucht (D.A. Scuderio et al. Cancer Res. 1988, 48, 4827-4833). Der verwendete Test bestimmt die zelluläre Dehydrogenase-Aktivität und ermöglicht eine Bestimmung der Zellvitalität und indirekt der Zellzahl. Bei den verwendeten Zelllinien handelt es sich um die humane Cervixkarzinom Zelllinie KB/HeLa (ATCC CCL17), die ovariale Adenokarzinomzelllinie SKOV-3 (ATCC HTB77), die humane Glioblastom Zelllinie SF-268 (NCI 503138) und die Lungenkarzinom Zelllinie NCI-H460 (NCI 503473). Des weiteren wurde zur Untersuchung der Zellzyklus-spezifischen Wirkung der Substanz ein RKOp27 Zellsystem verwendet (M. Schmidt et al. Oncogene19(20):2423-9, 2000). Bei RKO handelt es sich um eine humane Kolonkarzinomlinie, in der der Zellzyklusinhibitor p27 ^kip1 mittels des Ecdyson Expressionssystems induziert zur Expression gebracht und zu einem Zellzyklusarrest spezifisch in G2 geführt werden kann. Eine unspezifisch wirkende Substanz hemmt die Proliferation unabhängig davon, ob die RKO Zelle in G1 oder G2 arretiert ist oder nicht. Zellzyklus-spezifische Substanzen wie beispielsweise Tubulininhibitoren sind hingegen nur dann zytotoxisch, wenn Zellen nicht arretiert sind und der Zellzyklus durchlaufen wird. In Tabelle 1 ist die zytotoxische bzw. wachstumshemmende Aktivität der beschriebenen Verbindungen mit / ohne Expression von p27^kip1gezeigt. Die getesteten Verbindungen zeigten im induzierten Zustand von p27^kiP1 keine zytotoxische Aktivität. Die Ergebnisse zeigen eine sehr potente Hemmung der Proliferation ausgewählter Tumorzelllinien durch die genannten Substanzen. Tabelle 1:
(§2) Zur weiteren Charakterisierung wurden die Substanzen 1-6 an einem Panel von 7 humanen Tumorzelllinien auf ihre anti-proliferative Wirkung hin untersucht. Bei den untersuchten Zelllinien handelt es sich um die humanen Glioma Zelllinien A172 (ATCC CRL-1620) und U118 (ATCC HTB-15), die humane Lungenkarzinom Zelllinie A549, das humane epidermoide Karzinom A431 (ATCC CRL-2592), die humanen Prostatakarzinom Zelllinien DU145 (ATCC HTB-81) und PC3 (ATCC CRL-1435) und die humane Kolon Adenokarzinomzelllinie HT29 (ATCC HTB-38). Es handelt sich hierbei um sehr gut charakterisierte, etablierte Zelllinien, die von ATCC, ECACC bzw. NCI erhalten und in Kultur genommen wurden. Die in Tab. […]

[2] = tested on: A172; experiment: XTT proliferation assay, A172; format: cell-based, human; conditions: Homo sapiens, read-out: XTT Proliferationsassay, EC50 A172
Source text: as §1, §2

[3] = target: Topoisomerase II (Homo sapiens, UniProt P11388); experiment: pRYG relaxation assay for topoisomerase II activity; format: biochemical; conditions: tested at 100, 31.6 and 10 µM
Topoisomerase II, sequence (P11388 whole entry): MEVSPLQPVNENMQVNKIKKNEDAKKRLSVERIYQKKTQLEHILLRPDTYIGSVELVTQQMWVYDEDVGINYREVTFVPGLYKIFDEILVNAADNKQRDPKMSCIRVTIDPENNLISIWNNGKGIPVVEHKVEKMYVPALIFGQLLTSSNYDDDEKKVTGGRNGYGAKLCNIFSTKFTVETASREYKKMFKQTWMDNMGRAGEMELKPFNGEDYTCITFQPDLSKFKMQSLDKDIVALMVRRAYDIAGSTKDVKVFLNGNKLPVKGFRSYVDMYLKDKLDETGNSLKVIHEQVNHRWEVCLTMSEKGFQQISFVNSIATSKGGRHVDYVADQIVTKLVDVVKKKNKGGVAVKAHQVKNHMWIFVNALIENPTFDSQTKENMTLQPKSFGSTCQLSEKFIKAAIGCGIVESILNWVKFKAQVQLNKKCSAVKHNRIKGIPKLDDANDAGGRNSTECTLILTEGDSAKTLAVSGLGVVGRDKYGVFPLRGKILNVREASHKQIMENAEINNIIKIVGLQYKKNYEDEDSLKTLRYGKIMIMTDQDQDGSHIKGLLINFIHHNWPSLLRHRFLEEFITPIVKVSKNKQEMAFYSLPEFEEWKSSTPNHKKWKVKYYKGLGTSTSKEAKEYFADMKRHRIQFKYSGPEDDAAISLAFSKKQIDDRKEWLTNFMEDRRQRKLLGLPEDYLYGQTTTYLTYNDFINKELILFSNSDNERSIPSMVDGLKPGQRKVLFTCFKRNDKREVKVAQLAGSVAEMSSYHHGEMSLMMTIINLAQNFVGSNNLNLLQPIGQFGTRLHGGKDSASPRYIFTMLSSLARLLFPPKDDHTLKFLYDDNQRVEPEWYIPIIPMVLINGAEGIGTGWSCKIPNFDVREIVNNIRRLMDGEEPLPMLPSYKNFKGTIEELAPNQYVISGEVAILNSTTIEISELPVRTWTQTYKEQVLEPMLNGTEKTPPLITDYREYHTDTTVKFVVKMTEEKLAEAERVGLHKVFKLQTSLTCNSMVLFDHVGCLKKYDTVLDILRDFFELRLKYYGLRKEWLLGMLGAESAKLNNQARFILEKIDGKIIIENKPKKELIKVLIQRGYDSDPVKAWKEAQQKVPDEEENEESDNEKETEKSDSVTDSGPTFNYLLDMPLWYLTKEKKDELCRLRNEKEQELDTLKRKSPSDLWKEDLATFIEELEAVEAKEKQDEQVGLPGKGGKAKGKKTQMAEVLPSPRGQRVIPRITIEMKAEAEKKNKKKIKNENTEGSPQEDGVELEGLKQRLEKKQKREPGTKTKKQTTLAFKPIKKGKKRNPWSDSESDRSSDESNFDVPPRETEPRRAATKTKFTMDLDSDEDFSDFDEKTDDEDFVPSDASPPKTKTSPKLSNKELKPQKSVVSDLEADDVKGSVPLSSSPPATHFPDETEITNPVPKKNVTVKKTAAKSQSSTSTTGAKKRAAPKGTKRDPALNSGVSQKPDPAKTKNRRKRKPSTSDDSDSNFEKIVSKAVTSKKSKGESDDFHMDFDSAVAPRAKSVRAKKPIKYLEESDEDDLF
Description: Mit diesem Relaxationsassay konnte zusätzlich die inhibitorische Eigenschaft der erfindungsgemäßen Verbindungen auf Topoisomerase II gezeigt werden. Die Testung der erfindungsgemäßen Verbindungen 2 und 4 erfolgte hierbei bei drei unterschiedlichen Konzentrationen (100, 31.6 und 10 µM). Zum Vergleich setzte man die Referenzverbindung m-Amsacrin bei einer Konzentration von 100µM ein.
Zu 1µL vorgelegter Testsubstanz (20fach konzentriert in 100% DMSO) werden 2µL 10x Assay Puffer, 0,5µL pRYG DNA (125ng), 0,5µL human Topoisomerase II (1 unit) und 16µL H2O pipettiert und gemischt. Die Reaktionsansätze werden in den auf 37°C vorgeheizten Heizblock gestellt und 30min bei 37°C inkubiert. Die Inkubation wird nach Zugabe von 4µL 5x Stop Puffer abgestoppt. Danach werden 10µL des Ansatzes auf ein 1,2% Agarosegel mit 0,25µg/mL Ethidiumbromid aufgetragen und 2,5h bei 100V aufgetrennt. Zum Schluß wird das Gel unter UV Anregung fotografiert (s. Graph 3). Die Quantifizierung der Inhibierung der pRYG Relaxation erfolgt mit der GeIPro® Analyzer Software (s. Graph 4). [formula] [formula]

[4] = tested on: PC3; experiment: XTT proliferation assay, PC3; format: cell-based, human; conditions: Homo sapiens, read-out: XTT Proliferationsassay, EC50 PC3
Source text: as §1, §2

[5] = tested on: P388; experiment: XTT proliferation assay, P388 (wild type); format: cell-based, murine
Source text: as §1
(§3) Zur weiteren Charakterisierung wurden die Substanzen 1,2,4-6 gegenüber multi drug resistenten Zelllinien im Vergleich zu den nicht-resistenten Wildtypzelllinien untersucht.
(§4) Bei den untersuchten Zelllinien handelt es sich um die murine L1210, die akute myeloische Leukaemie Zelllinie LT12 und um die resistenten Linien L1210/mdr und LT12/mdr. Außerdem wurden die murine P388 Zelllinie (methyl-cholanthreneinduced lymphoid neoplasm) sowie die Doxorubicin-resistente P388 als Testsysteme herangezogen.

[6] = tested on: SKOV-3; experiment: XTT proliferation assay, SKOV-3; format: cell-based; conditions: Homo sapiens, SK-OV-3; read-out: XTT Proliferationsassay, EC50 SKOV3
Source text: as §1, with “Substanzen.” for “Substanzen. Tabelle 1:”

[7] = tested on: LT12; experiment: XTT proliferation assay, LT12 (wild type); format: cell-based
Source text: as §1, §3, §4

[8] = tested on: LT12mdr; experiment: XTT proliferation assay, LT12mdr (resistant); format: cell-based; conditions: read-out: XTT Proliferationsassay, EC50 LT12mdr
Source text: as §1, §3, §4

[9] = tested on: L1210VCR; experiment: XTT proliferation assay, L1210VCR (resistant); format: cell-based, murine
Source text: as §1, §3, §4

[10] = tested on: KB/HeLa; experiment: XTT proliferation assay, KB/HeLa; format: cell-based; conditions: Homo sapiens, read-out: XTT Proliferationsassay, EC50 KB/Hela
Source text: as §1, with “Substanzen.” for “Substanzen. Tabelle 1:”

Structure (SMILES) | EC50 ([1]; A-431, A431) | EC50 ([2]; A 172, A172) | Hemmung der Topoisomerase II (pRYG Relaxationsassay) [3] | EC50 ([4]; PC-3, PC3) | EC50 ([5]; Mus musculus, P388; read-out: XTT Proliferationsassay, EC50 P388) | EC50 [6] | EC50 ([7]; Rattus norvegicus, LT12; read-out: XTT Proliferationsassay, EC50 LT12) | EC50 [8] | EC50 ([9]; Mus musculus; read-out: XTT Proliferationsassay, EC50 L1210VCR) | EC50 [10] | EC50 ([5]; Mus musculus, P388, read-out: XTT Proliferationsassay, EC50 P388) | EC50 ([7]; Rattus norvegicus, LT12, read-out: XTT Proliferationsassay, EC50 LT12) | EC50 ([1]; A-431) | EC50 ([2]; A 172) | EC50 ([9]; Mus musculus, read-out: XTT Proliferationsassay, EC50 L1210VCR) | EC50 ([4]; PC-3)
O=C(Nc1ccc2ncccc2c1)C(=S)c1cn(Cc2ccc(Cl)cc2)c2ccccc12 [Verbindung 4, 2-[1-(4-Chlorbenzyl)-1 H-indol-3-yl]-N-chinolin-6-yl-2-thioxoacetamid] | 0.016 µg/mL (≈ 0.0351 µM) | 0.043 µg/mL (≈ 0.0943 µM) | signifikante Hemmung der Topoisomerase II | 0.027 µg/mL (≈ 0.0592 µM) |  |  |  |  |  |  |  |  |  |  |  | 
O=C(Nc1cnc2nccnc2c1)C(=O)c1cn(Cc2ccc(Cl)cc2)c2ccccc12 [Verbindung 5, 2-[1-(4-Chlor-benzyl)-1H-indol-3-yl]-2-oxo-N-pyrido[2,3-b]pyrazin-7-yl-acetamid] | 0.011 µg/mL (≈ 0.0249 µM) | 0.019 µg/mL (≈ 0.043 µM) |  | 0.03 µg/mL (≈ 0.0679 µM) | 0.012 µg/mL (≈ 0.0272 µM) | 0.029 µg/mL (≈ 0.0656 µM) | 0.015 µg/mL (≈ 0.0339 µM) | 0.017 µg/mL (≈ 0.0385 µM) | 0.021 µg/mL (≈ 0.0475 µM) | 0.045 µg/mL (≈ 0.102 µM) |  |  |  |  |  | 
O=C(Nc1ccc2ncccc2c1)C(=O)c1cn(Cc2ccc(Cl)cc2)c2ccccc12 [Verbindung 2, 2-[1-(4-Chlor-benzyl)-1 H-indol-3-yl]-2-oxo-N-chinolin-6-yl-acetamid] |  |  | signifikante Hemmung der Topoisomerase II |  |  | 0.018 µg/mL (≈ 0.0409 µM) |  | 0.063 µg/mL (≈ 0.143 µM) |  | 0.027 µg/mL (≈ 0.0614 µM) | 0.037 µg/mL (≈ 0.0841 µM) | 0.044 µg/mL (≈ 0.1 µM) | 0.014 µg/mL (≈ 0.0318 µM) | 0.024 µg/mL (≈ 0.0546 µM) | 0.078 µg/mL (≈ 0.177 µM) | 0.016 µg/mL (≈ 0.0364 µM)
